Data published in US6395905B1, “Tetrahydroindazole derivatives as ligands for GABA-A α 5 receptors” (Merck Sharp & Dohme Ltd., priority 1999, dated 2002).

melting point | Structure (SMILES)
244 °C (dec.) | O=C(Nc1ccccc1)c1n[nH]c2c1C(=O)CCC2 [Example 1, 4-Oxo-4,5,6,7-tetrahydro-1H-indazole-3-carboxylic acid phenylamide]
250 °C (dec.) | O=C(Nc1ccccn1)c1n[nH]c2c1C(=O)CCC2 [Example 3, 4-Oxo-4,5,6,7-tetrahydro-1H-indazole-3-carboxylic acid pyridin-2-ylamide]
250 °C (dec.) | NCCc1ccc(NC(=O)c2n[nH]c3c2C(=O)CCC3)cc1 [Example 5, 4-Oxo-4,5,6,7-tetrahydro-1H-indazole-3-carboxylic acid 4-(2-aminoethyl)phenylamide]
